Columns and labels:
[1] = biological target: T1, κ (KOP) (Rattus norvegicus, UniProt P34975); assay: In vitro radioligand binding assay, κ (KOP), [3H]U 69593; conditions: rat recombinant (CHO cells)
T1 construct: expressed in transfected cells; host or cells: CHO cells
Procedure: Certain compounds were tested by in vitro binding assays using standard procedures. […] These receptors and assays are well known to those skilled in the art, as exemplified by the following: Abramovitz, M. et al. (2000), Biochem. Biophys. Acta., 1483: 285-293 (EP4, IP (PGI2)); Aharony, D. et al. (1993), Mol. Pharmacol., 44: 356-363 (NK2); Ardati, A. et al. (1997), Mol. Pharmacol., 51: 816-824 (NOP (ORL1)); Bignon, E. et al. (1999), J. Pharmacol. Exp. Ther. 289: 742-751 (CCK1 (CCKA)); Bloomquist, B. T. et al. (1998), Biochem. Biophys. Res. Commun., 243: 474-479 (GAL2); Brockhaus, M. et al. (1990), Proc. Natl. Acad. Sci. U.S.A., 87: 3127-3131 (TNF-α); Brown, G. B. (1986), J. Neurosci., 6: 2064-2070 (Na+ channel (site 2)); Buchan, K. W. et al. (1994), Brit. J. Pharmacol., 112: 1251-1257 (ETA); Cesura, A. M. et al. (1990), Mol. Pharmacol., 37: 358-366 (MAO-A); Choi, D. S. et al. (1994), FEBS Lett., 352: 393-399 (5-HT2B); Clark, A. F. et al. (1996), Invest. Ophtalmol. Vis. Sci., 37: 805-813 (GR); Couvineau, A. et al. (1985), Biochem. J., 231: 139-143 (VPAC1 (VIP1)); Dorje, F. et al. (1991), J. Pharmacol. Exp. Ther., 256: 727-733 (M1, M2, M3, M4); Ferry, G. et al. (2001), Eur. J. Pharmacol., 417: 77-89 (PPARγ); Fuchs, S. et al. (2001), Mol. Med., 7: 115-124 (ETB); Fuhlendorff, J. et al. (1990), Proc. Natl. Acad. Sci. U.S.A., 87: 182-186 (Y2); Ganapathy M E. et al. (1999), J. Pharmacol. Exp. Ther., 289: 251-260 (sigma (non-selective)); Gopalakrishnan, M. et al. (1996), J. Pharmacol. Exp. Ther., 276: 289-297 (N neuronal α4β2); Greengrass, P. and Bremner, R. (1979), Eur. J. Pharmacol., 55: 323-326 (α1 (non-selective)); Grandy, D. K. et al. (1989), Proc. Natl. Acad. Sci. U.S.A., 86: 9762-9766 (D25); Guard, S. et al. (1993), Eur. J. Pharmacol., 240:177-184 (BB (non-selective)); Heuillet, E. et al. (1993), J. Neurochem., 60: 868-876 (NK1, P2X); Hope, A. G. et al. (1996), Brit. […]

[2] = system: GABA (non-selective); assay: In vitro radioligand binding assay, GABA (non-selective), [3H]GABA; conditions: rat cerebral cortex membranes
Procedure: (§1) Certain compounds were tested by in vitro binding assays using standard procedures. […] These receptors and assays are well known to those skilled in the art, as exemplified by the following: Abramovitz, M. et al. (2000), Biochem. Biophys. Acta., 1483: 285-293 (EP4, IP (PGI2)); Aharony, D. et al. (1993), Mol. Pharmacol., 44: 356-363 (NK2); Ardati, A. et al. (1997), Mol. Pharmacol., 51: 816-824 (NOP (ORL1)); Bignon, E. et al. (1999), J. Pharmacol. Exp. Ther. 289: 742-751 (CCK1 (CCKA)); Bloomquist, B. T. et al. (1998), Biochem. Biophys. Res. Commun., 243: 474-479 (GAL2); Brockhaus, M. et al. (1990), Proc. Natl. Acad. Sci. U.S.A., 87: 3127-3131 (TNF-α); Brown, G. B. (1986), J. Neurosci., 6: 2064-2070 (Na+ channel (site 2)); Buchan, K. W. et al. (1994), Brit. J. Pharmacol., 112: 1251-1257 (ETA); Cesura, A. M. et al. (1990), Mol. Pharmacol., 37: 358-366 (MAO-A); Choi, D. S. et al. (1994), FEBS Lett., 352: 393-399 (5-HT2B); Clark, A. F. et al. (1996), Invest. Ophtalmol. Vis. […]

[3] = system: sigma (non-selective); assay: In vitro radioligand binding assay, sigma (non-selective), [3H]DTG, Jurkat cells; conditions: Jurkat cells (endogenous)
Procedure: as §1

[4] = biological target: T2, 5-HT transporter (Homo sapiens, UniProt P31645); assay: In vitro radioligand binding assay, 5-HT transporter, [3H]imipramine; conditions: human recombinant (CHO cells)
T2 construct: expressed in transfected cells; host or cells: CHO cells
Procedure: as §1

T1 sequence (P34975 whole entry): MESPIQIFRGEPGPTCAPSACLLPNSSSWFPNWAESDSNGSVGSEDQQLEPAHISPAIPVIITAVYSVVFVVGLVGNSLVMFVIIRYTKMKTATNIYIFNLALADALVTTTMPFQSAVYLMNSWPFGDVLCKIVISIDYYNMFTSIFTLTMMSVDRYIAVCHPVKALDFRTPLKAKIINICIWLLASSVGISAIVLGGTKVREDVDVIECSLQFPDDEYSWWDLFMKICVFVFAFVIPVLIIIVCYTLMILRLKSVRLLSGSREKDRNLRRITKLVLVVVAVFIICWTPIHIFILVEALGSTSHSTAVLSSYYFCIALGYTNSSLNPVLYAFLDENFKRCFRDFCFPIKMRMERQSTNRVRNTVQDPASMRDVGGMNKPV
T2 sequence (P31645 whole entry): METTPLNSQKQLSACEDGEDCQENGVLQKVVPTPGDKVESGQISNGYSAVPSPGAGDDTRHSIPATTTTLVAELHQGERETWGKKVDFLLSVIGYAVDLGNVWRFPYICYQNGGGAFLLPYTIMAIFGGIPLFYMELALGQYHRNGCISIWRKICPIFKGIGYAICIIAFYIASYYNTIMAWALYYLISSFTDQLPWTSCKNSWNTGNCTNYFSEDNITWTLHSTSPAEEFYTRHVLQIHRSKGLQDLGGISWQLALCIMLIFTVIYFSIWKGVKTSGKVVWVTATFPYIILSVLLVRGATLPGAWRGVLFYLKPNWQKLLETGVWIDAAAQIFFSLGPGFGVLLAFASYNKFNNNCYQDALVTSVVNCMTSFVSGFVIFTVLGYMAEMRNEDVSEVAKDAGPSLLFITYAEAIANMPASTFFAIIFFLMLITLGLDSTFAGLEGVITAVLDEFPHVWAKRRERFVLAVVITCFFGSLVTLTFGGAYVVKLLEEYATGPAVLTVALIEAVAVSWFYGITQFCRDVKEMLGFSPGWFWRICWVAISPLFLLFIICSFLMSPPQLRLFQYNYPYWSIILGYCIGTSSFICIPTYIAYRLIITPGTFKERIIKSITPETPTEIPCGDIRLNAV

| Compound | κ (KOP) percent inhibition of specific binding [1] | GABA percent inhibition of specific binding [2] | sigma percent inhibition of specific binding [3] | Sert percent inhibition of specific binding [4] |
| --- | --- | --- | --- | --- |
| Fc1ccc2c(c1)[C@H]([C@@H]1CCCN1)OCC2 [Compound I-5, (2S)-2-((R)-7-fluoroisochroman-1-yl)pyrrolidine] | 71% | 57% | – | – |
| Clc1ccc2c(c1)[C@H]([C@@H]1CCCN1)OCC2 [Compound I-29, (S)-2-((R)-7-chloroisochroman-1-yl)pyrrolidine] | 89% | – | – | – |
| Fc1ccc2c(c1)CCO[C@H]2[C@@H]1CCN1 [Compound I-90, (S)-2-((R)-6-fluoroisochroman-1-yl)azetidine] | – | – | 63% | 80% |
| Fc1cccc2c1CCO[C@@H]2[C@@H]1CCN1 [Compound I-94, (S)-2-((S)-5-fluoroisochroman-1-yl)azetidine] | 67% | – | sigma (85%) | – |
